This is an account of results in US8242109B2, “Compositions and methods relating to novel compounds and targets thereof” (priority 2007, dated 2012).

Where two headings read alike, the source gives them in different places.

One experiment deals with T1, F1F0-ATPase (Bos taurus, UniProt P13621).
T1 construct: from tissue; host or cells: bovine sub-mitochondrial particles (SMPs)
Put plainly: Inhibition of ATP synthesis and hydrolysis by the F1F0-ATPase. In kind it is biochemical. The method, then: (§1) The compounds listed in Table 4 were tested for activity against F1F0-ATPase and cytotoxicity in Ramos cells. Inhibition of ATP synthesis and hydrolysis by the F1F0-ATPase was measured as described in K. M. Johnson et al., Chemistry & Biology 2005, 12, 485-496. Cytotoxicity in Ramos cells was measured as described in K. M. Johnson et al., Chemistry & Biology 2005, 12, 485-496, or using the alamarBlue™ Assay with fluorescence detection (U.S. Pat. No. 5,501,959) as supplied and described by Invitrogen (Carlsbad, Calif.).

For a further experiment, the system named is Ramos cells. The experiment is described as follows: Cytotoxicity in Ramos cells. It is filed as cell-based. The following applies: Homo sapiens, read-out: Ramos Cell EC50. The method, then:
as §1

Consider `CNC(=O)Nc1ccc(C2=NC(Cc3ccccc3Br)C(=O)Nc3ccc(Cl)cc32)cc1` (stereo not shown) [Compound 11, (Z)-1-(4-(3-(2-bromobenzyl)-7-chloro-2-oxo-2,3-dihydro-1H-benzo[e][1,4]diazepin-5-yl)phenyl)-3-methylurea], for which the IC50 against F1F0-ATPase lay within 5 to 10 µM. In addition, the EC50 in the experiment on Ramos cells (cytotoxicity in Ramos cells) was less than 5 µM.
Regarding `CN(C)CCNC(=O)Nc1ccc(C2=NC(Cc3ccccc3Br)C(=O)Nc3ccc(Cl)cc32)cc1` (stereo not shown) [Compound 12, (Z)-1-(4-(3-(2-bromobenzyl)-7-chloro-2-oxo-2,3-dihydro-1H-benzo[e][1,4]diazepin-5-yl)phenyl)-3-(2-(dimethylamino)ethyl)urea], on F1F0-ATPase (read-out: ATPase IC50), the IC50 fell in the range of 5 to 10 µM. The EC50 in the experiment with Ramos cells (cytotoxicity in Ramos cells) is less than 5 µM.
For `O=C(NCC(F)(F)F)Nc1ccc(C2=NC(Cc3ccccc3Br)C(=O)Nc3ccc(Cl)cc32)cc1` (stereo not shown) [Compound 13, (Z)-1-(4-(3-(2-bromobenzyl)-7-chloro-2-oxo-2,3-dihydro-1H-benzo[e][1,4]diazepin-5-yl)phenyl)-3-(2,2,2-trifluoroethyl)urea], in that order: less than 5 µM and less than 5 µM.
Consider `O=C(Nc1ccc(C2=NC(Cc3ccccc3Br)C(=O)Nc3ccc(Cl)cc32)cc1)NC1CC1` (stereo not shown) [Compound 14, (Z)-1-(4-(3-(2-bromobenzyl)-7-chloro-2-oxo-2,3-dihydro-1H-benzo[e][1,4]diazepin-5-yl)phenyl)-3-cyclopropylurea], for which the IC50 at F1F0-ATPase (read-out: ATPase IC50) lay within 5 to 10 µM. For the same compound, the EC50 in the experiment on Ramos cells (cytotoxicity in Ramos cells) was less than 5 µM.
Regarding `COCCNC(=O)Nc1ccc(C2=NC(Cc3ccccc3Br)C(=O)Nc3ccc(Cl)cc32)cc1` (stereo not shown) [Compound 15, (Z)-1-(4-(3-(2-bromobenzyl)-7-chloro-2-oxo-2,3-dihydro-1H-benzo[e][1,4]diazepin-5-yl)phenyl)-3-(2-methoxyethyl)urea], at F1F0-ATPase (read-out: ATPase IC50), the IC50 was in the range of 5 to 10 µM. In the experiment on Ramos cells (cytotoxicity in Ramos cells), the EC50 was less than 5 µM.
On to `CCOCCNC(=O)Nc1ccc(C2=NC(Cc3ccccc3Br)C(=O)Nc3ccc(Cl)cc32)cc1` (stereo not shown) [Compound 16, (Z)-1-(4-(3-(2-bromobenzyl)-7-chloro-2-oxo-2,3-dihydro-1H-benzo[e][1,4]diazepin-5-yl)phenyl)-3-(2-ethoxyethyl)urea], for which the 50% inhibitory concentration (IC50) at F1F0-ATPase (read-out: ATPase IC50) was in the range of 5 to 10 µM. Moreover, in the experiment with Ramos cells (cytotoxicity in Ramos cells), the EC50 was less than 5 µM.
The compound `Cc1ccccc1CC1N=C(c2ccc(O)cc2)c2cc(Cl)ccc2NC1=O` (stereo not shown) [Compound 17, (Z)-7-chloro-5-(4-hydroxyphenyl)-3-(2-methylbenzyl)-1H-benzo[e][1,4]diazepin-2(3H)-one] had an IC50 against F1F0-ATPase of 5 to 10 µM. In addition, in the experiment on Ramos cells (Ramos), the EC50 is 5 to 10 µM.
At F1F0-ATPase, `Cc1ccccc1CC1N=C(c2ccc(O)cc2)c2cc(Cl)ccc2N(C)C1=O` (stereo not shown) [Compound 18, (Z)-7-chloro-5-(4-hydroxyphenyl)-1-methyl-3-(2-methylbenzyl)-1H-benzo[e][1,4]diazepin-2(3H)-one] showed an IC50 of more than 10 µM. The EC50 in the experiment with Ramos cells (cytotoxicity in Ramos cells) is more than 10 µM.
In the case of `Cc1cccc(CC2N=C(c3ccc(O)cc3)c3cc(Cl)ccc3NC2=O)c1` (stereo not shown) [Compound 19, (Z)-7-chloro-5-(4-hydroxyphenyl)-3-(3-methylbenzyl)-1H-benzo[e][1,4]diazepin-2(3H)-one], at F1F0-ATPase, the IC50 fell in the range of 5 to 10 µM. The EC50 in the experiment with Ramos cells (Ramos) fell in the range of 5 to 10 µM.
`Cc1cccc(CC2N=C(c3ccc(O)cc3)c3cc(Cl)ccc3N(C)C2=O)c1` (stereo not shown) [Compound 20, (Z)-7-chloro-5-(4-hydroxyphenyl)-1-methyl-3-(3-methylbenzyl)-1H-benzo[e][1,4]diazepin-2(3H)-one]: the IC50 on F1F0-ATPase is more than 10 µM. The EC50 with Ramos cells (cytotoxicity in Ramos cells) was more than 10 µM.
`Cc1ccc(CC2N=C(c3ccc(O)cc3)c3cc(Cl)ccc3NC2=O)cc1` (stereo not shown) [Compound 21, (Z)-7-chloro-5-(4-hydroxyphenyl)-3-(4-methylbenzyl)-1H-benzo[e][1,4]diazepin-2(3H)-one]: at F1F0-ATPase, the IC50 lay in the range of 5 to 10 µM. Further, the EC50 with Ramos cells (Ramos) lay within 5 to 10 µM.
For the compound `Cc1ccc(CC2N=C(c3ccc(O)cc3)c3cc(Cl)ccc3N(C)C2=O)cc1` (stereo not shown) [Compound 22, (Z)-7-chloro-5-(4-hydroxyphenyl)-1-methyl-3-(4-methylbenzyl)-1H-benzo[e][1,4]diazepin-2(3H)-one], the IC50 at F1F0-ATPase is more than 10 µM. In addition, the EC50 with Ramos cells (cytotoxicity in Ramos cells) was more than 10 µM.
On to `CCc1ccccc1CC1N=C(c2ccc(O)cc2)c2cc(Cl)ccc2NC1=O` (stereo not shown) [Compound 23, (Z)-7-chloro-3-(2-ethylbenzyl)-5-(4-hydroxyphenyl)-1H-benzo[e][1,4]diazepin-2(3H)-one], for which the IC50 against F1F0-ATPase lay within 5 to 10 µM. Also, the EC50 in the experiment with Ramos cells (cytotoxicity in Ramos cells) was 5 to 10 µM.
`CCc1ccccc1CC1N=C(c2ccc(O)cc2)c2cc(Cl)ccc2N(C)C1=O` (stereo not shown) [Compound 24, (Z)-7-chloro-3-(2-ethylbenzyl)-5-(4-hydroxyphenyl)-1-methyl-1H-benzo[e][1,4]diazepin-2(3H)-one] returned an IC50 at F1F0-ATPase of 5 to 10 µM. Further, the EC50 with Ramos cells (cytotoxicity in Ramos cells) was more than 10 µM.
In turn, `CCc1cccc(CC2N=C(c3ccc(O)cc3)c3cc(Cl)ccc3NC2=O)c1` (stereo not shown) [Compound 25, (Z)-7-chloro-3-(3-ethylbenzyl)-5-(4-hydroxyphenyl)-1H-benzo[e][1,4]diazepin-2(3H)-one] registered an IC50 on F1F0-ATPase of 5 to 10 µM. Also, in the experiment on Ramos cells (cytotoxicity in Ramos cells), the EC50 was in the range of 5 to 10 µM.
For `CCc1cccc(CC2N=C(c3ccc(O)cc3)c3cc(Cl)ccc3N(C)C2=O)c1` (stereo not shown) [Compound 26, (Z)-7-chloro-3-(3-ethylbenzyl)-5-(4-hydroxyphenyl)-1-methyl-1H-benzo[e][1,4]diazepin-2(3H)-one], the IC50 on F1F0-ATPase lay within 5 to 10 µM. For the same compound, in the experiment with Ramos cells (cytotoxicity in Ramos cells), the EC50 fell in the range of 5 to 10 µM.
On to `CCc1ccc(CC2N=C(c3ccc(O)cc3)c3cc(Cl)ccc3N(C)C2=O)cc1` (stereo not shown) [Compound 27, (Z)-7-chloro-3-(4-ethylbenzyl)-5-(4-hydroxyphenyl)-1-methyl-1H-benzo[e][1,4]diazepin-2(3H)-one], for which the IC50 on F1F0-ATPase was 5 to 10 µM. Moreover, the EC50 in the experiment on Ramos cells (cytotoxicity in Ramos cells) is 5 to 10 µM.
The compound `CCc1ccc(CC2N=C(c3ccc(O)cc3)c3cc(Cl)ccc3NC2=O)cc1` (stereo not shown) [Compound 28, (Z)-7-chloro-3-(4-ethylbenzyl)-5-(4-hydroxyphenyl)-1H-benzo[e][1,4]diazepin-2(3H)-one] came in with an IC50 against F1F0-ATPase of 5 to 10 µM. Moreover, the EC50 in the experiment on Ramos cells (cytotoxicity in Ramos cells) lay in the range of 5 to 10 µM.
As to `CC(C)c1cccc(CC2N=C(c3ccc(O)cc3)c3cc(Cl)ccc3N(C)C2=O)c1` (stereo not shown) [Compound 29, (Z)-7-chloro-5-(4-hydroxyphenyl)-3-(3-isopropylbenzyl)-1-methyl-1H-benzo[e][1,4]diazepin-2(3H)-one], the IC50 on F1F0-ATPase was 5 to 10 µM. Further, in the experiment on Ramos cells (cytotoxicity in Ramos cells), the 50% effective concentration (EC50) is 5 to 10 µM.
As for `CC(C)c1ccc(CC2N=C(c3ccc(O)cc3)c3cc(Cl)ccc3NC2=O)cc1` (stereo not shown) [Compound 30, (Z)-7-chloro-5-(4-hydroxyphenyl)-3-(4-isopropylbenzyl)-1H-benzo[e][1,4]diazepin-2(3H)-one], on F1F0-ATPase, the IC50 lay in the range of 5 to 10 µM. Further, in the experiment on Ramos cells (cytotoxicity in Ramos cells), the concentration for a half-maximal effect (EC50) lay within 5 to 10 µM.
On to `CC(C)c1ccc(CC2N=C(c3ccc(O)cc3)c3cc(Cl)ccc3N(C)C2=O)cc1` (stereo not shown) [Compound 31, (Z)-7-chloro-5-(4-hydroxyphenyl)-3-(4-isopropylbenzyl)-1-methyl-1H-benzo[e][1,4]diazepin-2(3H)-one], for which the IC50 at F1F0-ATPase is 5 to 10 µM. The EC50 in the experiment with Ramos cells (cytotoxicity in Ramos cells) lay within 5 to 10 µM.
As for `CN1C(=O)C(Cc2ccccc2C(F)(F)F)N=C(c2ccc(O)cc2)c2cc(Cl)ccc21` (stereo not shown) [Compound 32, (Z)-7-chloro-5-(4-hydroxyphenyl)-1-methyl-3-(2-(trifluoromethyl)benzyl)-1H-benzo[e][1,4]diazepin-2(3H)-one], the IC50 against F1F0-ATPase was 5 to 10 µM. Besides, the EC50 in the experiment on Ramos cells (cytotoxicity in Ramos cells) lay in the range of 5 to 10 µM.
In turn, `O=C1Nc2ccc(Cl)cc2C(c2ccc(O)cc2)=NC1Cc1ccccc1Br` (stereo not shown) [Compound 33, (Z)-3-(2-bromobenzyl)-7-chloro-5-(4-hydroxyphenyl)-1H-benzo[e][1,4]diazepin-2(3H)-one] yielded an IC50 against F1F0-ATPase of 5 to 10 µM. For the same compound, the EC50 in the experiment on Ramos cells (Ramos) was less than 5 µM.
The compound `CN1C(=O)C(Cc2ccccc2Cl)N=C(c2ccc(O)cc2)c2cc(Cl)ccc21` (stereo not shown) [Compound 34, (Z)-7-chloro-3-(2-chlorobenzyl)-5-(4-hydroxyphenyl)-1-methyl-1H-benzo[e][1,4]diazepin-2(3H)-one] came in with an IC50 against F1F0-ATPase of less than 5 µM. Also, the EC50 in the experiment on Ramos cells (cytotoxicity in Ramos cells) was 5 to 10 µM.
`CN1C(=O)C(Cc2ccc(C(F)(F)F)cc2)N=C(c2ccc(O)cc2)c2cc(Cl)ccc21` (stereo not shown) [Compound 36, (Z)-7-chloro-5-(4-hydroxyphenyl)-1-methyl-3-(4-(trifluoromethyl)benzyl)-1H-benzo[e][1,4]diazepin-2(3H)-one] gave an IC50 at F1F0-ATPase of less than 5 µM. Besides, in the experiment with Ramos cells (cytotoxicity in Ramos cells), the EC50 was 5 to 10 µM.
For `CN1C(=O)C(Cc2cccc(Br)c2)N=C(c2ccc(O)cc2)c2cc(Cl)ccc21` (stereo not shown) [Compound 37, (Z)-3-(3-bromobenzyl)-7-chloro-5-(4-hydroxyphenyl)-1-methyl-1H-benzo[e][1,4]diazepin-2(3H)-one], the IC50 against F1F0-ATPase is less than 5 µM. The EC50 in the experiment on Ramos cells (cytotoxicity in Ramos cells) was 5 to 10 µM.
`CN1C(=O)C(Cc2ccc(Br)cc2)N=C(c2ccc(O)cc2)c2cc(Cl)ccc21` (stereo not shown) [Compound 38, (Z)-3-(4-bromobenzyl)-7-chloro-5-(4-hydroxyphenyl)-1-methyl-1H-benzo[e][1,4]diazepin-2(3H)-one] registered an IC50 against F1F0-ATPase of less than 5 µM. The EC50 with Ramos cells (cytotoxicity in Ramos cells) is 5 to 10 µM.
Take `CN1C(=O)C(Cc2cccc(Cl)c2)N=C(c2ccc(O)cc2)c2cc(Cl)ccc21` (stereo not shown) [Compound 39, (Z)-7-chloro-3-(3-chlorobenzyl)-5-(4-hydroxyphenyl)-1-methyl-1H-benzo[e][1,4]diazepin-2(3H)-one]: the IC50 against F1F0-ATPase is more than 10 µM. For the same compound, the EC50 in the experiment on Ramos cells (cytotoxicity in Ramos cells) was more than 10 µM.
In the case of `O=C1Nc2ccc(Cl)cc2C(c2ccc(O)cc2)=NC1Cc1ccccc1Cl` (stereo not shown) [Compound 40, (Z)-7-chloro-3-(2-chlorobenzyl)-5-(4-hydroxyphenyl)-1H-benzo[e][1,4]diazepin-2(3H)-onc], at F1F0-ATPase, the IC50 was less than 5 µM. Also, the EC50 with Ramos cells (Ramos) is 5 to 10 µM.

In general, IC50 refers to the concentration that inhibits the measured activity by half. By EC50 is commonly meant the midpoint of the concentration-response curve.
